Read-outs that look alike come from different tables or passages of the source.
Legend:
[1] = type: in vivo, human
[2] = cited from earlier work
[3] = tested on: pooled human liver microsomes; conditions: MDZ and efavirenz; cited from earlier work
hepatic CYP3A activity = conditions: time after (first) perpetrator drug administration
CYP3A = conditions: cited from earlier work
[4] = calculated from model parameters
[5] = metabolite in the absence of parent compound, ref Hotz et al. 27
[6] = ref Wiebe et al. 23, Tomalik-Scharte et al. 25
[7] = oral and i.v. bolus administration

OCc1ncc2n1-c1ccc(Cl)cc1C(c1ccccc1F)=NC2 [1’-OH-MDZ, 1’-hydroxymidazolam]
Elimination rate constant of 1’-OH-MDZ [1, 4]: 0.880 h⁻¹
Formation rate constant of 1’-OH-MDZ [1, 4]: 0.712 h⁻¹
IIV of 1’-OH-MDZ CL ([1]; interindividual variability): 42.0 %CV
1’-OH-MDZ CL ([1]; population estimate after metabolic conversion of MDZ): 264 L/h
1’-OH-MDZ CL, reported [2, 5]: 34.4 to 56.7 L/h
1’-OH-MDZ V, reported [2, 5]: 49.7 to 79.8 L
1’-OH-MDZ CL, reported [2, 6]: 186 to 208 L/h
1’-OH-MDZ V, reported [2, 6]: 256 to 876 L

O=C1Nc2ccc(Cl)cc2[C@@](C#CC2CC2)(C(F)(F)F)O1 [efavirenz]
Increase in metabolite formation rates [3]: ~ 1.5 fold
Time of maximum CYP3A modulatory effect (hepatic CYP3A activity): 2 to 4 h
Increase in MDZ CL (CYP3A; 12 h after efavirenz administration, ref Mikus et al. 32): 27%

Cc1ncc2n1-c1ccc(Cl)cc1C(c1ccccc1F)=NC2 [midazolam]
Vd ([1]; human, plasma, intravenous): 56.7 L
clearance ([1]; human, plasma, intravenous): 732 mL/min
IIV of MDZ CL ([1]; interindividual variability): 21.9 %CV
IIV of MDZ volume of distribution ([1]; interindividual variability): 29.9 %CV
MDZ CL, reported [2, 7]: 15.2 to 45.0 L/h
MDZ V, reported [2, 7]: 33.3 to 180 L/h

C[C@@H](c1ncncc1F)[C@](O)(Cn1cncn1)c1ccc(F)cc1F [voriconazole]
Oral bioavailability [2]: > 90%
Decrease in hepatic CYP3A activity (CYP3A; within 12 h after oral voriconazole, semi-physiological model): 75%

From paper PMC9652212 (Clinical Pharmacokinetics, 2022)
